Laboratory results taken from patent publication US20250122208A1, “CHEMOKINE RECEPTOR MODULATORS AND USES THEREOF” (RAPT THERAPEUTICS, INC., priority 2023, published 2025).

Molecular target: T1, CCR4 receptor (Homo sapiens, UniProt P51679)
T1 construct: beta-galactosidase enzyme-fragment tag; From own knowledge, PathHunter uses a ProLink/enzyme-donor fragment, usually at the receptor's C-terminus; expressed in transfected cells; host or cells: CHO-K1
T1 sequence (P51679 1-360): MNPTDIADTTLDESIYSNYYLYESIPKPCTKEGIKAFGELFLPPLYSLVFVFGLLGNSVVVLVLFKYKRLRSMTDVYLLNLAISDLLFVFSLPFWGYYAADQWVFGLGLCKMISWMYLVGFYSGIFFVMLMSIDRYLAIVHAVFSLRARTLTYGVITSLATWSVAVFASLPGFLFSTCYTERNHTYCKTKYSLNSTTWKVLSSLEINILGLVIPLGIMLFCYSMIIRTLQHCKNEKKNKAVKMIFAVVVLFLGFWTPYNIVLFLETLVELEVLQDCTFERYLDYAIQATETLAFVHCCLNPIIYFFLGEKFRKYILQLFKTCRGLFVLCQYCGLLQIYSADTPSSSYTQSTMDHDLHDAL
Assay: CCR4 antagonist activity in Beta-Arrestin Cellular Assay (PathHunter, CCL22 challenge)
Type: cell-based
Details: CHO-K1 cells expressing the CCR4 receptor; CCL22 at EC80 (15 nM), 90 minutes; 30 min pre-incubation; read-out: Potency (CCR4 antagonist IC50 in the β-arrestin assay)
Method: Example 39. Determination of CCR4 antagonist activity in Beta-Arrestin Cellular Assay
CCR4 Antagonistic Activity was assessed in Beta-Arrestin Cellular Assay. Compounds were assessed in CHO-K1 cells expressing the CCR4 receptor modified to enable β-glactosidase detection of β-arrestin agonist activity stimulated by CCL22 in a chemiluminescence assay. Cells were seeded in a total volume of 20 μL into white walled, 384-well microplates and incubated at 37° C. prior to testing. Cells were pre-incubated with test compound for 30 min at 37° C. followed by agonist challenge with CCL22 at the EC80 concentration (15 nM) for 90 minutes. Assay signal was generated through a single addition of 12.5 or 15 μL ([…]) of PathHunter Detection reagent cocktail, followed by a one-hour incubation at room temperature. Microplates were read following signal generation with a PerkinElmer Envision™ instrument for chemiluminescent signal detection. Antagonist activity was analyzed using CBIS data analysis suite (ChemInnovation, CA). Antagonist activity was characterized as percentage inhibition calculated using the following formula:
An IC50 of >500 nM is designated as Potency C, an IC50 of between 500 nM and 100 nM is designated as Potency B and an IC50 of <100 nM is designated as Potency A.

| Compound | IC50 [nM] |
| --- | --- |
| C[C@@H](Nc1cc(N2CCC([C@H]3CCCN(CCC(=O)O)C3)CC2)nc2ncnn12)c1ccc(Cl)cc1Cl [Example 14, 3-((R)-1′-(7-(((R)-1-(2,4-dichlorophenyl)ethyl)amino)-[1,2,4]triazolo[1,5-a]pyrimidin-5-yl)-[3,4′-bipiperidin]-1-yl)propanoic acid] | < 100 |
| C[C@@H](Nc1cc(N2CCC([C@H]3CCCN(Cc4nn[nH]n4)C3)CC2)nc2ncnn12)c1ccc(Cl)cc1Cl [Example 2, 5-((R)-1-((2H-tetrazol-5-yl)methyl)-[3,4′-bipiperidin]-1′-yl)-N-((R)-1-(2,4-dichlorophenyl)ethyl)-[1,2,4]triazolo[1,5-a]pyrimidin-7-amine] | < 100 |
| C[C@@H](Nc1cc(N2CCC([C@H]3CCCN(Cc4nc[nH]n4)C3)CC2)nc2ncnn12)c1ccc(Cl)cc1Cl [Example 5, 5-((R)-1-((1H-1,2,4-triazol-3-yl)methyl)-[3,4′-bipiperidin]-1′-yl)-N-((R)-1-(2,4-dichlorophenyl)ethyl)-[1,2,4]triazolo[1,5-a]pyrimidin-7-amine] | < 100 |
| C[C@@H](Nc1cc(N2CCC([C@H]3CCCN(C4CCCC4)C3)CC2)nc2ncnn12)c1ccc(Cl)cc1Cl [Example 10, 5-((R)-1-cyclopentyl-[3,4′-bipiperidin]-1′-yl)-N-((R)-1-(2,4-dichlorophenyl)ethyl)-[1,2,4]triazolo[1,5-a]pyrimidin-7-amine] | < 100 |
| C[C@@H](Nc1cc(N2CCC([C@H]3CCCNC3)CC2)nc2ncnn12)c1ccc(Cl)cc1Cl [Example 1, 5-((R)-[3,4′-bipiperidin]-1′-yl)-N-((R)-1-(2,4-dichlorophenyl)ethyl)-[1,2,4]triazolo[1,5-a]pyrimidin-7-amine] | < 100 |
| C[C@@H](Nc1cc(N2CCC([C@H]3CCCN(CCO)C3)CC2)nc2ncnn12)c1ccc(Cl)cc1Cl [Example 8, 2-((R)-1′-(7-(((R)-1-(2,4-dichlorophenyl)ethyl)amino)-[1,2,4]triazolo[1,5-a]pyrimidin-5-yl)-[3,4′-bipiperidin]-1-yl)ethan-1-ol] | < 100 |
| CC(CCN1CCC[C@H](C2CCN(c3cc(N[C@H](C)c4ccc(Cl)cc4Cl)n4ncnc4n3)CC2)C1)C(=O)O (mixture of isomers) [Example 16, 4-((R)-1′-(7-(((R)-1-(2,4-dichlorophenyl)ethyl)amino)-[1,2,4]triazolo[1,5-a]pyrimidin-5-yl)-[3,4′-bipiperidin]-1-yl)-2-methylbutanoic acid] | < 100 |
| COCCN1CCC[C@H](C2CCN(c3cc(N[C@H](C)c4ccc(Cl)cc4Cl)n4ncnc4n3)CC2)C1 [Example 11, N-((R)-1-(2,4-dichlorophenyl)ethyl)-5-((R)-1-(2-methoxyethyl)-[3,4′-bipiperidin]-1′-yl)-[1,2,4]triazolo[1,5-a]pyrimidin-7-amine] | < 100 |
| C[C@@H](Nc1cc(N2CCC([C@H]3CCCN(C4CCOCC4)C3)CC2)nc2ncnn12)c1ccc(Cl)cc1Cl [Example 6, N-((R)-1-(2,4-dichlorophenyl)ethyl)-5-((R)-1-(tetrahydro-2H-pyran-4-yl)-[3,4′-bipiperidin]-1′-yl)-[1,2,4]triazolo[1,5-a]pyrimidin-7-amine] | < 100 |
| C[C@@H](Nc1cc(N2CCC([C@H]3CCCN(CCS(C)(=O)=O)C3)CC2)nc2ncnn12)c1ccc(Cl)cc1Cl [Example 12, N-((R)-1-(2,4-dichlorophenyl)ethyl)-5-((R)-1-(2-(methylsulfonyl)ethyl)-[3,4′-bipiperidin]-1′-yl)-[1,2,4]triazolo[1,5-a]pyrimidin-7-amine] | < 100 |

Further lines, results first:

| IC50 [nM] | Compound |
| --- | --- |
| < 100 | C[C@@H](Nc1cc(N2CCC([C@H]3CCCN(CCCO)C3)CC2)nc2ncnn12)c1ccc(Cl)cc1Cl [Example 22, 3-((R)-1′-(7-(((R)-1-(2,4-dichlorophenyl)ethyl)amino)-[1,2,4]triazolo[1,5-a]pyrimidin-5-yl)-[3,4′-bipiperidin]-1-yl)propan-1-ol] |
| < 100 | C[C@@H](Nc1cc(N2CCC(C3CCCN(CCO)C3)C2)nc2ncnn12)c1ccc(Cl)cc1Cl (single isomer, unassigned) [Example 23a] |
| < 100 | Cc1cc(Cl)ccc1[C@@H](C)Nc1cc(N2CCC([C@H]3CCCN([C@H]4C[C@](C)(C(=O)O)C4)C3)CC2)nc2ccnn12 [Example 32, (1R,3r)-3-((R)-1′-(7-(((R)-1-(4-chloro-2-methylphenyl)ethyl)amino)pyrazolo[1,5-a]pyrimidin-5-yl)-[3,4′-bipiperidin]-1-yl)-1-methylcyclobutane-1-carboxylic acid] |
| < 100 | C[C@@H](Nc1cc(N2CCC(C3CCCN(CCO)C3)C2)nc2ncnn12)c1ccc(Cl)cc1Cl (single isomer, unassigned) [Example 23b] |
| < 100 | C[C@@H](Nc1cc(N2CCC([C@H]3CCCN([C@H]4C[C@](C)(C(=O)O)C4)C3)CC2)nc2ccnn12)c1ccc(F)cc1F [Example 34, (1R,3r)-3-((R)-1′-(7-(((R)-1-(2,4-difluorophenyl)ethyl)amino)pyrazolo[1,5-a]pyrimidin-5-yl)-[3,4′-bipiperidin]-1-yl)-1-methylcyclobutane-1-carboxylic acid] |
| < 100 | C[C@@H](Nc1cc(N2CCC([C@H]3CCCN([C@H]4C[C@](C)(C(=O)O)C4)C3)CC2)nc2ncnn12)c1ccc(F)cc1Cl [Example 26, (1R,3r)-3-((R)-1′-(7-(((R)-1-(2-chloro-4-fluorophenyl)ethyl)amino)-[1,2,4]triazolo[1,5-a]pyrimidin-5-yl)-[3,4′-bipiperidin]-1-yl)-1-methylcyclobutane-1-carboxylic acid] |
| 100 to 500 | C[C@@H](Nc1cc(N2CCC([C@H]3CCCN([C@H]4C[C@](C)(C(=O)O)C4)C3)CC2)nc2ncnn12)c1ccc(F)cc1F [Example 35, (1R,3r)-3-((R)-1′-(7-(((R)-1-(2,4-difluorophenyl)ethyl)amino)-[1,2,4]triazolo[1,5-a]pyrimidin-5-yl)-[3,4′-bipiperidin]-1-yl)-1-methylcyclobutane-1-carboxylic acid] |
| < 100 | Cc1ccc([C@@H](C)Nc2cc(N3CCC([C@H]4CCCN([C@H]5C[C@](C)(C(=O)O)C5)C4)CC3)nc3ncnn23)c(Cl)c1 [Example 30, (1R,3r)-3-((R)-1′-(7-(((R)-1-(2-chloro-4-methylphenyl)ethyl)amino)-[1,2,4]triazolo[1,5-a]pyrimidin-5-yl)-[3,4′-bipiperidin]-1-yl)-1-methylcyclobutane-1-carboxylic acid] |
| < 100 | C[C@@H](Nc1cc(N2CCC([C@H]3CCCN([C@H]4C[C@](C)(C(=O)O)C4)C3)CC2)nc2ccnn12)c1ccc(Cl)cc1F [Example 38, (1R,3r)-3-((R)-1′-(7-(((R)-1-(4-chloro-2-fluorophenyl)ethyl)amino)pyrazolo[1,5-a]pyrimidin-5-yl)-[3,4′-bipiperidin]-1-yl)-1-methylcyclobutane-1-carboxylic acid] |
| < 100 | Cc1ccc([C@@H](C)Nc2cc(N3CCC([C@H]4CCCN([C@H]5C[C@](C)(C(=O)O)C5)C4)CC3)nc3ccnn23)c(Cl)c1 [Example 31, (1R,3r)-3-((R)-1′-(7-(((R)-1-(2-chloro-4-methylphenyl)ethyl)amino)pyrazolo[1,5-a]pyrimidin-5-yl)-[3,4′-bipiperidin]-1-yl)-1-methylcyclobutane-1-carboxylic acid] |
| < 100 | C[C@@H](Nc1cc(N2CCC([C@H]3CCCN(C4CC(S(C)(=O)=O)C4)C3)CC2)nc2ncnn12)c1ccc(Cl)cc1Cl (mixture of isomers) [Example 21, N-((R)-1-(2,4-dichlorophenyl)ethyl)-5-((R)-1-(3-(methylsulfonyl)cyclobutyl)-[3,4′-bipiperidin]-1′-yl)-[1,2,4]triazolo[1,5-a]pyrimidin-7-amine] |
| < 100 | C[C@@H](Nc1cc(N2CCC([C@H]3CCCN([C@H]4C[C@](C)(C(=O)O)C4)C3)CC2)nc2ccnn12)c1ccc(Cl)cc1Cl [Example 24, (1R,3r)-3-((R)-1′-(7-(((R)-1-(2,4-dichlorophenyl)ethyl)amino)pyrazolo[1,5-a]pyrimidin-5-yl)-[3,4′-bipiperidin]-1-yl)-1-methylcyclobutane-1-carboxylic acid] |
| < 100 | C[C@@H](Nc1cc(N2CCC([C@H]3CCCN([C@H]4C[C@](C)(C(=O)O)C4)C3)CC2)nc2nccn12)c1ccc(Cl)cc1F [Example 27, (1R,3r)-3-((R)-1′-(5-(((R)-1-(4-chloro-2-fluorophenyl)ethyl)amino)imidazo[1,2-a]pyrimidin-7-yl)-[3,4′-bipiperidin]-1-yl)-1-methylcyclobutane-1-carboxylic acid] |
